Data set [1] can be described thus: AUClast in ICR mouse at 3 mg/kg, po measured for 24 hrs by LC-MS/MS analysis. It is filed as ADME, organism-based. More on the design: dose 3 mg/kg, time 24 hrs, route po. The conditions noted are these: in vivo.
Data set [2] addresses Protein arginine N-methyltransferase 1 (Homo sapiens, UniProt Q99873). Description: Inhibition of PRMT1 (unknown origin) by AlphaLISA assay.
Another data set has as its system MOLT-4. Kind of data set: Antiproliferative activity against human MOLT-4 cells harboring wild type NSD2 assessed as inhibition of cell growth incubated for 6 days by CCK-8 assay. The data set is classed as functional, cell-based. The conditions noted are these: MOLT-4, 144 h. A general note: Tetrazolium assays rely on reduction of a dye to a coloured formazan, in cell work by metabolically active cells.

Data set [3] can be described thus: Antiproliferative activity against human MINO cells assessed as inhibition of cell growth incubated for 6 days by CCK-8 assay. It is filed as functional, cell-based. The conditions noted are these: 144 h.
The target of data set [4] is Protransforming growth factor alpha (Homo sapiens) (UniProt P01135). Kind of data set: Inhibition of TGFA transcriptional activation in human KMS-11 cells assessed as reduction in TGFA mRNA expression at 0.5 uM by qRT-PCR analysis. The data set is classed as cell-based. Background: Quantitative PCR measures a nucleic acid by following its amplification.
Sequence of Protransforming growth factor alpha (Homo sapiens) (P01135 whole entry): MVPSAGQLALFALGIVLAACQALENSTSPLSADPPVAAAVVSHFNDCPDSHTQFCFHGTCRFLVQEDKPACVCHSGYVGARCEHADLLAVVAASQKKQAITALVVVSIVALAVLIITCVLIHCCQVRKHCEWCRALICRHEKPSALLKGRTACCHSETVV
Data set [5] relates to KMS-11. Description: Induction of apoptosis in human KMS-11 cells assessed as late apoptotic cells at 0.2 uM incubated for 72 hrs by Annexin V-FITC/PI staining based flow cytometry analysis (reference value: 6.47%). It is filed as functional. (Flow cytometry measures light scatter and fluorescence of single cells or particles in a stream.)
For data set [6], the system named is KMS-11. Description: Induction of apoptosis in human KMS-11 cells assessed as dead cells at 0.2 uM incubated for 72 hrs by Annexin V-FITC/PI staining based flow cytometry analysis (reference value: 6.48%). It is filed as functional.
In data set [7] the test system is KMS-11. Description: Induction of apoptosis in human KMS-11 cells assessed as early apoptotic cells at 0.5 uM incubated for 72 hrs by Annexin V-FITC/PI staining based flow cytometry analysis (reference value: 3.96%). It is filed as functional.
Data set [8] deals with KMS-11. Description: Antitumor activity against human KMS-11 cells xenografted in SCID mouse assessed as tumor growth inhibition at 150 mg/kg, po administered daily for 21 days and measured every 3 days relative to control. The data set is classed as functional. The conditions noted are these: KMS-11, 504 h, time 21 day, read-out: TGI.

Broadly, the AUC(0-t) is exposure summed from dosing to a finite time, without extrapolation to infinity. Usually IC50 stands for the point on the concentration scale where inhibition reaches its midpoint.

Calls of active or inactive are those of the source. No cut-off for these calls is given here.

Sequence of Protein arginine N-methyltransferase 1 (Q99873 whole entry): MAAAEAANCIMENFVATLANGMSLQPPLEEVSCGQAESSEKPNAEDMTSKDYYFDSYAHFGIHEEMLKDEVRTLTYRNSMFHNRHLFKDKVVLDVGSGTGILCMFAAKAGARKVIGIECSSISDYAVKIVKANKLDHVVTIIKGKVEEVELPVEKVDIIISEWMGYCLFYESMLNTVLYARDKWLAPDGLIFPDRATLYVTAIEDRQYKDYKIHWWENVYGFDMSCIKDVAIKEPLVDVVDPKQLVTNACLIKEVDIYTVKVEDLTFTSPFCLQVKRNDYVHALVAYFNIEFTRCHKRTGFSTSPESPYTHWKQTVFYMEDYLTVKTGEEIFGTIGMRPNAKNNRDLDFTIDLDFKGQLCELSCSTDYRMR

`CC#CC(=O)NC12CC(NC3=C(Cl)C(=O)c4ncccc4C3=O)(C1)C2`: in data set [1], the AUC(0-t) at 24 h worked out at 42700 ng·h/mL. In addition, the figures for the IC50 (in data set [2]; with MOLT-4; in data set [3]) were > 10 µM, 1.23 µM and 9.9 µM, respectively. Moreover, the inhibition result in [4] is “Active”. The results for the Activity with KMS-11 [5], in the data set on KMS-11 [6] and with KMS-11 [7] were 7.79%, 6.54% and 14.1%, respectively. Also, the inhibition in vivo at 150 mg/kg in the data set on KMS-11 [8] is 58.4%.
